# Experimental data reported in article PMC2112011 (The Journal of Cell Biology, 1982).
# System: C3H cells
# Assay: Rodlet formation
# Type: cell-based, mouse
# Settings: 10-20 μM, 1 h
smiles,measurement,value
"CC1=C[C@@H]2/C=C(\C)CC[C@H](O)[C@H](O)/C=C/C(=O)[C@]23C(=O)N[C@@H](CC(C)C)[C@@H]3[C@@H]1C [AsD, Aspochalasin D]",Number of rodlets within a single cell,1-127
